Measured values published in publication PMC3789652 (Journal of pharmaceutical sciences, 2011).

Legend:
[1] = n-octanol / sodium phosphate buffer; assay type: physicochemical; conditions: n-octanol/sodium phosphate buffer pH 7.4, 0.15 M, room temperature; mean ± SD, n = 6
plasma proteins [2] = experiment: plasma free fraction by ultrafiltration, human plasma; assay type: in vitro ADME; conditions: mean ± SD, n = 3; for mlogDpr/pl Human: log10[(1−fp)/fp]; for fP Human: ultrafiltration, room temperature
plasma proteins [3] = experiment: plasma free fraction by ultrafiltration, monkey plasma; assay type: in vitro ADME, rhesus monkeys (Macaca mulatta); conditions: mean ± SD, n = 3; for fP Monkey: arterial monkey plasma, ultrafiltration, room temperature; for mlogDpr/pl Monkey: log10[(1−fp)/fp], monkey plasma

| SMILES | mlogD [1] | mlogDpr/pl Human (plasma proteins [2]) | fP Human (plasma proteins [2]) | fP Monkey (plasma proteins [3]) | mlogDpr/pl Monkey (plasma proteins [3]) |
| --- | --- | --- | --- | --- | --- |
| N#Cc1cc(F)cc(C#Cc2csc(CF)n2)c1 [Radiotracer 4, 3-fluoro-5-(2-(2-(fluoromethyl)thiazol-4-yl)ethynyl)benzonitrile] | 2.18 ± 0.22 | 1.25 ± 0.13 | 0.0550 ± 0.0165 |  |  |
| [2H]C([18F])Oc1cccc([C@H]2C[C@@H](N[C@H](C)c3ccccc3)C(=O)N2c2ccc(C(F)(F)F)cc2)c1 (stereo partly shown) [Radiotracer 18] | 4.24 ± 0.08 | 2.31 ± 0.14 | 0.0050 ± 0.0017 | 0.0041 ± 0.0001 | 2.39 ± 0.01 |
| COc1ccccc1N1CCN(CCCCn2ncc(=O)n(C)c2=O)CC1 [Radiotracer 1, [O-methyl-^11C]2-(4-(4-(2-methoxyphenyl)piperazin-1-yl)butyl)-4-methyl-1,2,4-triazine-3,5(2H,4H)dione] | 1.13 ± 0.02 | 0.101 ± 0.006 |  | 0.594 ± 0.016 | −0.165 ± 0.029 |
| CN([11CH3])C(=O)C(CCN1CCC(O)(c2ccc(Cl)cc2)CC1)(c1ccccc1)c1ccccc1 [Radiotracer 7, [N-methyl-^11C]N-desmethyl-loperamide] |  |  | 0.123 ± 0.015 |  |  |
